Source: US20060206946A1, “Method of disrupting heme transport in nematodes and of modelling and evaluating eukaryotic heme transport” (priority 2005, published 2006)
Entries after “also recorded” stand apart in the source; their conditions may differ.

Experiments:
Assay type in all cases: in vivo, Caenorhabditis elegans
C. elegans = details: pulse 40 μM ZnMP 3 h
Method: (C) Fluorescent metabolic labeling of worms with either 40 μM hemin (images 1, 4) or 40 μM ZnMP/4 μM hemin (images 2, 3, 5, 6) for 3 h followed by confocal microscopy with a 546 laser (images 1-3) and DIC optics (images 4-6). Arrowheads indicate ZnMP fluorescence accumulation within intestinal cells and developing embryos. For clarity, the boxed image in 2 is magnified in images 3 and 6. (Bar=100 μm).
(D) Worms were incubated with 40 μM ZnMP/4 μM hemin for 16 h followed by a chase with 40 μM hemin. Worms were analyzed by epifluorescence microscopy (TRITC channel) and DIC optics. Experiments were performed either in the absence (images 1-4) or presence (images 5-8) of NaN3 during the chase periods to test for the non-specific loss of ZnMP fluorescence. Photomicrograph 4 is shown at a lower power to depict the complete loss of ZnMP fluorescence. (Bar=100 μm). For (C) and (D), four separate experiments were performed with a minimum of 50 worms per data point per experiment. The data are representative for >90% of worms analyzed.
Because of the nature of the growth curve, we reasoned that heme homeostatis in C. elegans may be regulated in accordance with organismic needs and metabolic demands. […]
Pulse-Chase Analysis. […] At timed intervals, aliquots of worms were removed into the appropriate medium containing 10 mM NaN3 mounted on a slide and immediately analyzed with a 543 He/Ne laser on a Zeiss 410 confocal microscope, or with a Peltier-cooled Retiga 1300 12-bit CCD camera fitted on to a Leica DMIRE2 autofluorescence/DIC microscope. Images were further analyzed with SIMPLEPCI v5.2 Software (Compix, Inc.). […] No loss of fluorescence was observed when labeling experiments were performed in parallel in the presence of 1 mM NaN3 during the chase period and when worms were incubated in medium without hemin. To account for background autouluorescence in C. elegans, the sensor gain of the CCD camera or the laser was set to subtract any fluorescence obtained from control worms incubated in the presence of 40 μM hemin.

C. elegans mutant IH728 = test: Growth of heme resistant mutant in CeHR medium
Method: (§1) To further increase the stringency of our genetic screen we split the contents from each 800 μM hemin selection flasks into two flasks containing either 800 μM or 1000 μM hemin. This allowed us to use another tier of positive selection to identify mutants with greater resistance to heme toxicity. Mutants from each flask were isolated and treated as a separate entity by giving an identification number based on the Genetic Nomenclature Guidelines used for C. elegans (http://biosci.umn.edu/CGC/Nomenclature/nomenguid.htm). To eliminate EMS-induced spurious mutations that could result in false positive, the mutants were outcrossed to wild-type N2 males. After five outcrosses, which replaces ˜97% of the mutant genome, mutants that bred true were selected for further analysis. Using this procedure, we isolated 13 individual mutants that were resistant to heme toxicity. These mutants were further characterized by analyzing Mendelian segregation ratios, X-linkage, phenotype penetrance, generation times, brood size, and their ability to grow under low hemin. […] This observation was surprising because we anticipated that high heme-resistant mutants will grow poorly under low heme. Based on the mutant's growth profile at low and high heme levels, we broadly categorized them into three phenotypic classes: class A, class B and class C (FIG. 13). These “phenoclusters” have the following growth phenotype: (a) three mutants IH728, IH938, IH731 show with robust growth under low and high (≧800 μM heme (FIG. 13B), (b) one mutant IH828 show exceptional growth under low heme, moderate growth at ≦800 μM heme, and no growth at 1000 μM hemin (FIG. 13C), and (c) six mutants IH921, IH11058, IH1068n, IH1068d, IH1048, and IH718 that show moderate growth under high heme (≦800 μM), but normal growth under low heme (FIG. 13D). By classifying these mutants into phenoclusters, we can focus our efforts on the phenotypic datasets to map the molecular networks and pathways involved in heme dependent processes. For instance, mutants in a cluster may have mutations within the same gene or in multiple genes but within the same pathway.
(§2) Worm Culture and Growth Assays. Free-living worms were cultured in CeHR axenic liquid medium (Dr. Eric Clegg, Personal Communication). […] CeHR medium was modified (henceforth called mCeHR) to eliminate all sources of exogenously added heme; basal growth medium comprised 20 μM hemin chloride (Frontier Scientific, Logan, Utah) and 150 μM of ferrous ammonium sulfate (Sigma Chemicals). Worm strains were grown in mCeHR medium under aerobic conditions in tissue culture flasks at 20° C. ˜3.7×10^6 worms were routinely obtained after 3.5 to 4 days in a T75 flask with 30 ml basal medium from an initial inoculum of −1.5×10^5 worms. For initial culturing of worms in axenic media, three generations of worms were sequentially bleached (1.1% bleach/0.55 M NaOH) to eliminate any contaminating bacterial carryover from agar plates. In all dose-response experiments, worms were growth synchronized by treating the gravid hermaphrodite worms with bleach to dissolve adult worms. The eggs, resistant to bleach, were liberated from the carcasses and extensively washed with M9 buffer followed by overnight hatching in M9 buffer to synchronize growth. By harvesting at appropriate time intervals, synchronous larval stages and adult staged worms were collected for experimental manipulations. Identical numbers of synchronized L1 larvae were inoculated into media with different heme concentrations in 12- or 24-well culture plates. Worm growth was monitored each day and an aliquot was obtained for counting by microscopy usually at days 3, 6, and 9. The worms in each well were counted twice and each growth condition was analyzed in triplicate. P values for statistical significance were calculated utilizing a one-way ANOVA with Student-Newman-Keuls multiple comparison test using GraphPad Instat version 3.01. […]

C. elegans mutant IH828 = test: Growth of heme resistant mutant in CeHR medium
Method: as §1, §2

C. elegans mutant IH938 = test: Growth of heme resistant mutant in CeHR medium
Method: as §1, §2

[1] = 20 μM hemin, average in 24 well plates

For hemin chloride, the “hemin concentration of growth medium giving dramatic decline in ZnMP fluorescence” value (C. elegans) was at least 100 µM, the “hemin concentration of growth medium giving robust uptake of fluorescent ZnMP” value (C. elegans) was at most 20 µM and the “Generation time (Days) 20 μM” value (C. elegans mutant IH728; 20 μM hemin) was 3.5 days. The “brood size 20 μM” value (C. elegans mutant IH728; [1]) was 53, the “Generation time (Days) 800 μM” value (C. elegans mutant IH728; 800 μM hemin) was 4 days and the “resistance of IH828” value (C. elegans mutant IH828; 800 μM hemin) was “moderately resistant”. The “growth of IH828” value (C. elegans mutant IH828; 1000 μM hemin) was “no growth; also recorded: does not grow”, the “Generation time (Days) 20 μM” value (C. elegans mutant IH828; IH828, 20 μM hemin) was 3.5 days and the “brood size 20 μM” value (C. elegans mutant IH828; IH828, 20 μM hemin, average in 24 well plates) was 67. The “Generation time (Days) 800 μM” value (C. elegans mutant IH828; IH828, 800 μM hemin) was 4 days, the “Generation time (Days) 20 μM” value (C. elegans mutant IH938; 20 μM hemin) was 3.5 days and the “brood size 20 μM” value (C. elegans mutant IH938; [1]) was 72. For the same substance, the “Generation time (Days) 800 μM” value (C. elegans mutant IH938; 800 μM hemin) was 4 days.
